From ChEMBL document CHEMBL1201862, “PubChem BioAssay data set” (2004)
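Following 48 hours of exposure in 96-well plates, responses at five concentrations were used to interpolate endpoints linearly. At the GI50, growth is halved.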 Active and inactive are the calls of the source. Rule as the data show it: active = GI50 up to about 1.1 µM and inactive = higher.

Assays:
Test in all cases: inhibition of tumour cell growth, NCI panel, 48 h
OVCAR-8 = system: OVCAR-8
OVCAR-5 = system: OVCAR-5
DU-145 = system: DU-145
HCT-15 = system: HCT-15
CAKI-1 = system: CAKI-1
MDA-MB-435 = system: MDA-MB-435
MDA-MB-231 = system: MDA-MB-231
SF-539 = system: SF-539
IGROV-1 = system: IGROV-1
HL-60 = system: HL-60
U-251 = system: U-251
RPMI-8226 = system: RPMI-8226
PC-3 = system: PC-3
K562 = system: K562
EKVX = system: EKVX
SF-268 = system: SF-268
RXF 393 = system: RXF 393
BT-549 = system: BT-549
OVCAR-3 = system: OVCAR-3
UACC-62 = system: UACC-62
SN12C = system: SN12C
HOP-92 = system: HOP-92
CCRF-CEM = system: CCRF-CEM
M14 = system: M14
MOLT-4 = system: MOLT-4
HT-29 = system: HT-29
SK-MEL-5 = system: SK-MEL-5
SK-MEL-2 = system: SK-MEL-2
LOX IMVI = system: LOX IMVI
NCI-H460 = system: NCI-H460
TK-10 = system: TK-10
HOP-62 = system: HOP-62
SNB-19 = system: SNB-19
A549 = system: A549
SW-620 = system: SW-620
COLO 205 = system: COLO 205
UO-31 = system: UO-31
HCT-116 = system: HCT-116
UACC-257 = system: UACC-257
NCI-H522 = system: NCI-H522
Hs-578T = system: Hs-578T
T47D = system: T47D
A498 = system: A498
SF-295 = system: SF-295
MDA-N = system: MDA-N
786-0 = system: 786-0
KM12 = system: KM12
SK-OV-3 = system: SK-OV-3
ACHN = system: ACHN
Malme-3M = system: Malme-3M
SK-MEL-28 = system: SK-MEL-28
NCI/ADR-RES = system: NCI/ADR-RES
NCI-H23 = system: NCI-H23
NCI-H226 = system: NCI-H226
SNB-75 = system: SNB-75
OVCAR-4 = system: OVCAR-4
HCC 2998 = system: HCC 2998
MCF7 = system: MCF7

In the case of `CC1=NNC(=O)C1C1CC(c2c[nH]c3ccccc23)=NN(C(N)=O)C1=O` (configuration not stated), the GI50 (OVCAR-8) is reported as 98.6 µM (inactive), the GI50 (OVCAR-5) is reported as > 100 µM (inactive) and the GI50 (DU-145) is reported as > 100 µM (inactive). The GI50 (HCT-15) was 37.8 µM, the GI50 (CAKI-1) was > 100 µM (inactive) and the GI50 (MDA-MB-435) was 56 µM (inactive). For the same molecule, the GI50 (MDA-MB-231) was > 100 µM (inactive), the GI50 (SF-539) was 91.4 µM (inactive) and the GI50 (IGROV-1) was 4.4 µM (inactive). The GI50 (HL-60) was 29 µM (inactive), the GI50 (U-251) was 51.2 µM (inactive) and the GI50 (RPMI-8226) was 30.8 µM (inactive). For the same molecule, the GI50 (PC-3) was 65.3 µM (inactive), the GI50 (K562) was 33 µM (inactive) and the GI50 (EKVX) was > 100 µM (inactive). For the same molecule, the GI50 (SF-268) was > 100 µM (inactive), the GI50 (RXF 393) was 52.1 µM (inactive) and the GI50 (BT-549) was 34.3 µM (inactive). The GI50 (OVCAR-3) was > 100 µM (inactive), the GI50 (UACC-62) was 80.7 µM (inactive) and the GI50 (SN12C) was > 100 µM (inactive). The GI50 (HOP-92) was > 100 µM (inactive), the GI50 (CCRF-CEM) was 31 µM (inactive) and the GI50 (M14) was > 100 µM (inactive). For the same molecule, the GI50 (MOLT-4) was 33.7 µM (inactive), the GI50 (HT-29) was > 100 µM (inactive) and the GI50 (SK-MEL-5) was 82 µM (inactive). For the same molecule, the GI50 (SK-MEL-2) was > 100 µM (inactive), the GI50 (LOX IMVI) was 62.7 µM (inactive) and the GI50 (NCI-H460) was 62.4 µM (inactive). For the same molecule, the GI50 (TK-10) was > 100 µM (inactive), the GI50 (HOP-62) was > 100 µM (inactive) and the GI50 (SNB-19) was 75 µM (inactive). The GI50 (A549) was 64 µM (inactive), the GI50 (SW-620) was 92.9 µM (inactive) and the GI50 (COLO 205) was 53.2 µM (inactive). The GI50 (UO-31) was 28.7 µM (inactive), the GI50 (HCT-116) was 83.2 µM (inactive) and the GI50 (UACC-257) was > 100 µM (inactive). The GI50 (NCI-H522) was 31.8 µM (inactive), the GI50 (Hs-578T) was 85.1 µM (inactive) and the GI50 (T47D) was 61 µM (inactive). The GI50 (A498) was > 100 µM (inactive), the GI50 (SF-295) was 61.2 µM (inactive) and the GI50 (MDA-N) was 68.7 µM (inactive). For the same molecule, the GI50 (786-0) was > 100 µM (inactive), the GI50 (KM12) was 28.5 µM (inactive) and the GI50 (SK-OV-3) was > 100 µM (inactive). For the same molecule, the GI50 (ACHN) was 97.9 µM (inactive), the GI50 (Malme-3M) was > 100 µM (inactive) and the GI50 (SK-MEL-28) was > 100 µM (inactive). The GI50 (NCI/ADR-RES) was > 100 µM (inactive), the GI50 (NCI-H23) was 29.9 µM (inactive) and the GI50 (NCI-H226) was > 100 µM (inactive). The GI50 (SNB-75) was 87.3 µM (inactive).
With `COc1cc2c(cc1OC)CN1CCCc3cc(OC)c(OC)cc3C1C2` (configuration not stated) the GI50 (OVCAR-8) was 57.7 µM (inactive), the GI50 (OVCAR-5) was 51.3 µM (inactive) and the GI50 (DU-145) was 76 µM (inactive). The GI50 (HCT-15) was 41.6 µM, the GI50 (CAKI-1) was 38.6 µM (inactive) and the GI50 (MDA-MB-435) was 18.1 µM (inactive). For the same molecule, the GI50 (MDA-MB-231) was 56.5 µM (inactive), the GI50 (SF-539) was 24.3 µM (inactive) and the GI50 (IGROV-1) was 22 µM (inactive). The GI50 (OVCAR-4) was 62.4 µM (inactive), the GI50 (U-251) was 36.6 µM (inactive) and the GI50 (PC-3) was 39.8 µM (inactive). For the same molecule, the GI50 (K562) was 48.3 µM (inactive), the GI50 (EKVX) was 44 µM (inactive) and the GI50 (SF-268) was 61 µM (inactive). The GI50 (RXF 393) was 29.6 µM (inactive), the GI50 (BT-549) was 99.3 µM (inactive) and the GI50 (OVCAR-3) was 39.3 µM (inactive). For the same molecule, the GI50 (UACC-62) was 29.6 µM (inactive), the GI50 (SN12C) was 42.7 µM (inactive) and the GI50 (HOP-92) was 21.4 µM (inactive). The GI50 (CCRF-CEM) was 48.9 µM (inactive), the GI50 (M14) was 40.6 µM (inactive) and the GI50 (MOLT-4) was 88.1 µM (inactive). The GI50 (HT-29) was 19.6 µM (inactive), the GI50 (SK-MEL-5) was 36.1 µM (inactive) and the GI50 (LOX IMVI) was 25.4 µM (inactive). The GI50 (HCC 2998) was 33.7 µM (inactive), the GI50 (NCI-H460) was 31.4 µM (inactive) and the GI50 (TK-10) was 51.4 µM (inactive). For the same molecule, the GI50 (HOP-62) was 25 µM (inactive), the GI50 (SNB-19) was 36.9 µM (inactive) and the GI50 (A549) was 55 µM (inactive). The GI50 (SW-620) was 30.5 µM (inactive), the GI50 (MCF7) was 31 µM (inactive) and the GI50 (COLO 205) was 40.9 µM (inactive). The GI50 (UO-31) was 43.1 µM (inactive), the GI50 (HCT-116) was 23.1 µM (inactive) and the GI50 (UACC-257) was 67.5 µM (inactive). For the same molecule, the GI50 (NCI-H522) was 29.4 µM (inactive), the GI50 (Hs-578T) was 40.8 µM (inactive) and the GI50 (T47D) was 22.9 µM (inactive). For the same molecule, the GI50 (SF-295) was 12.9 µM (inactive), the GI50 (MDA-N) was 17.3 µM (inactive) and the GI50 (786-0) was 33.2 µM (inactive). For the same molecule, the GI50 (KM12) was 50 µM (inactive), the GI50 (SK-OV-3) was 63.4 µM (inactive) and the GI50 (ACHN) was 34.1 µM (inactive). For the same molecule, the GI50 (Malme-3M) was 30.3 µM (inactive), the GI50 (SK-MEL-28) was 32 µM (inactive) and the GI50 (NCI/ADR-RES) was > 100 µM (inactive). The GI50 (NCI-H23) was 52.4 µM (inactive), the GI50 (NCI-H226) was 27.9 µM (inactive) and the GI50 (SNB-75) was 13.2 µM (inactive).
In the case of `CC(=O)OCCC[C@@H]1C(=C(C)C)CCC2[C@@]1(C)CC[C@@]1(C)C[C@](C)(CCC=C(C)C)CC[C@]21C` (some centres not stated), the GI50 (OVCAR-8) is reported as > 100 µM (inactive), the GI50 (OVCAR-5) is reported as > 100 µM (inactive) and the GI50 (DU-145) is reported as > 100 µM (inactive). For the same molecule, the GI50 (HCT-15) was greater than 100 µM, the GI50 (CAKI-1) was > 100 µM (inactive) and the GI50 (MDA-MB-435) was > 100 µM (inactive). For the same molecule, the GI50 (MDA-MB-231) was > 100 µM (inactive), the GI50 (SF-539) was > 100 µM (inactive) and the GI50 (IGROV-1) was > 100 µM (inactive). The GI50 (OVCAR-4) was > 100 µM (inactive), the GI50 (HL-60) was > 100 µM (inactive) and the GI50 (U-251) was > 100 µM (inactive). The GI50 (RPMI-8226) was > 100 µM (inactive), the GI50 (PC-3) was 18.5 µM (inactive) and the GI50 (EKVX) was > 100 µM (inactive). For the same molecule, the GI50 (SF-268) was > 100 µM (inactive), the GI50 (BT-549) was > 100 µM (inactive) and the GI50 (OVCAR-3) was > 100 µM (inactive). The GI50 (UACC-62) was > 100 µM (inactive), the GI50 (SN12C) was > 100 µM (inactive) and the GI50 (CCRF-CEM) was > 100 µM (inactive). The GI50 (M14) was > 100 µM (inactive), the GI50 (MOLT-4) was > 100 µM (inactive) and the GI50 (HT-29) was > 100 µM (inactive). For the same molecule, the GI50 (SK-MEL-5) was > 100 µM (inactive), the GI50 (HCC 2998) was > 100 µM (inactive) and the GI50 (NCI-H460) was > 100 µM (inactive). The GI50 (TK-10) was < 0.01 µM (active), the GI50 (HOP-62) was > 100 µM (inactive) and the GI50 (SNB-19) was > 100 µM (inactive). For the same molecule, the GI50 (A549) was > 100 µM (inactive), the GI50 (SW-620) was > 100 µM (inactive) and the GI50 (MCF7) was > 100 µM (inactive). For the same molecule, the GI50 (COLO 205) was > 100 µM (inactive), the GI50 (UO-31) was 13.5 µM (inactive) and the GI50 (HCT-116) was > 100 µM (inactive). For the same molecule, the GI50 (UACC-257) was > 100 µM (inactive), the GI50 (NCI-H522) was > 100 µM (inactive) and the GI50 (Hs-578T) was > 100 µM (inactive). For the same molecule, the GI50 (T47D) was > 100 µM (inactive), the GI50 (A498) was > 100 µM (inactive) and the GI50 (SF-295) was > 100 µM (inactive). The GI50 (MDA-N) was > 100 µM (inactive), the GI50 (786-0) was > 100 µM (inactive) and the GI50 (KM12) was > 100 µM (inactive). The GI50 (SK-OV-3) was > 100 µM (inactive), the GI50 (ACHN) was > 100 µM (inactive) and the GI50 (Malme-3M) was > 100 µM (inactive). The GI50 (SK-MEL-28) was > 100 µM (inactive), the GI50 (NCI/ADR-RES) was > 100 µM (inactive) and the GI50 (NCI-H23) was > 100 µM (inactive). For the same molecule, the GI50 (NCI-H226) was > 100 µM (inactive) and the GI50 (SNB-75) was 7.94 µM (inactive).
